ChEMBL document CHEMBL1150571, “Hipposulfates A and B, new sesterterpene sulfates from an Okinawan sponge, Hippospongia cf. metachromia” (J Nat Prod, 2001)

Experiments:
Format in all cases: functional, cell-based
[1] = test system: SK-MEL-28; experiment: Cytotoxicity against human SK-MEL-28 cells
[2] = test system: A549; experiment: Cytotoxicity against human A549 cells
[3] = test system: HT-29; experiment: Cytotoxicity against human HT-29 cells
[4] = test system: P388; experiment: Cytotoxicity against mouse P388 cells

Measured: IC50

CC1=CC[C@H]2C(C)(C)CCC[C@]2(C)[C@H]1CC/C(=C\OS(=O)(=O)[O-])CCC/C(C)=C/Cc1cc(O)ccc1O.[Na+] [HIPPOSULFATE A]
2 µg/mL: all assays above
